Entries after “also recorded” stand apart in the source; their conditions may differ.
Tests used:
CYP2D6 [1] = target: T1, CYP2D6 (Homo sapiens, UniProt P10635); experiment: CYP2D6 inhibition screening, recombinant enzyme, MAMC substrate; format: in vitro ADME
T1 construct: purchased BD Bioscience
Procedure: Protocol. […] The source of the enzyme was microsomes containing human recombinant CYP2D6 obtained from BD Bioscience. Conversion of MAMC to 7-hydroxy-4-(aminomethyl)coumarin was measured using a PerkinElmer Fusion with a 390 nm excitation filter and a 460 nm emission filter.

CYP2D6 [2] = target: T1, CYP2D6; experiment: CYP2D6 inhibition (dextromethorphan O-demethylation) in human hepatic microsomes; format: in vitro ADME; conditions: pooled male human hepatic microsomes
Procedure: The 200 μL incubations were conducted in duplicate in 0.1 M potassium phosphate buffer (pH 7.4) with 0.02 mg of microsomal protein, 3 mM MgCl2, 1 mM EDTA and 7.5 μM of the probe substrate dextromethorphan in a 96-well polypropylene plate maintained at 37° C. After a 3-minute pre-incubation, the reaction was initiated with the addition of 2 mM NADPH. Upon completion of the 10-minute incubation period, aliquots of 100 μL were removed and added to a new plate containing 100 μL of internal standard in acidified acetonitrile to stop the reaction. The quenched samples were vortexed and the precipitated protein was removed by centrifugation. Supernatant aliquots of 100 μL were transferred to LC vials and 5 μL were injected onto the HPLC system for LC/MS/MS analysis of the metabolite dextrorphan. Standards and quality control samples were similarly prepared using authentic dextrorphan standards.
Dexthorphan concentrations were determined by high performance liquid chromatography with tandem mass spectrometric detection (LC/MS/MS) after protein precipitation with acidified acetonitrile containing internal standard. Separations were performed with a Flux Rheos 2000 quaternary pump (Leap Technologies, Inc., Carrboro, N.C.) using an XTerra® MS C18, 3.5 μm, 4.6×50 mm column (Waters Corporation, Milford, Mass.). […]

L5 SNL rats [3] = experiment: L5 SNL model of neuropathic pain, tactile allodynia (von Frey); format: in vivo, rat
Procedure: Protocol. […] Neurosci. Methods 144:175-181. The test animals were placed in a Plexiglas chamber (10 cm×20 cm×25 cm) and habituated for 15 minutes. The chamber was positioned on top of a mesh screen so that von Frey monofilaments could be presented to the plantar surface of both hindpaws. Measurement of tactile sensitivity for each hind paw were obtained using the up/down method (Dixon, 1980, Annu Rev. Pharmacol. […] Each trial started with a von Frey force of 2 grams delivered to the right hind paw for approximately 1-2 seconds and then the left hind paw. If there was no withdrawal response, the next higher force was delivered. If there was a response, the next lower force was delivered. This procedure was performed until no response was made at the highest force (15 grams) or until four stimuli were administered following the initial response. The 50% paw withdrawal threshold for each paw was calculated using the following formula: […] Testing for tactile sensitivity was performed twice and the mean 50% withdrawal value assigned as the tactile sensitivity for the right and left paws for each animal. All test groups contained at least six animals. Protocol. […] In the experiment, animals were tested for tactile allodynia at 30 min post treatment. The sham-operated control group, which were operated on but not subject to nerve ligation, contained 4 animals. The treatment group contained at least six animals. Protocol. […] All test groups contained at least six animals. Protocol. […] The data obtained are depicted in FIG. 11.

Male Sprague-Dawley rats = experiment: Rat hot plate model of acute nociceptive pain; format: in vivo; conditions: 30 and 60 mg/kg IP, 50° C. hot plate (FIGS. 6A, 6B)
Procedure: Protocol. […] For the experiment, rats were acclimated to a 50° C. hot plate apparatus by gently placing them on the hot plate with all four paws on the surface. A timer was started and the latency (in seconds) until the rat licked any of its paws was measured. A 60 second cut-off to elicit a response was set to prevent tissue damage to the paws. After the rats elicited the paw lick response, they were removed from the apparatus and returned to their home cages for at least 30 minutes. Baseline paw lick latencies were determined prior to drug treatments in an identical manner to the acclimation test. Following drug treatments, the rats were placed on the hot plate apparatus at the appropriate time and treatment paw lick latencies were determined. All test groups contained at least six animals.

FCA-treated rats = experiment: FCA-induced mechanical hyperalgesia (inflammatory pain); format: in vivo, rat
Procedure: Protocol. […] For the assay, the methods of DeHaven-Hudkins et al., 1999, J. Pharmacol. Exp. Ther. 289:494-502 were used to determine mechanical hyperalgesia in rats 24 hours after intraplantar administration of 150 μL Freund's Complete Adjuvant (FCA). To determine paw pressure thresholds, the rats were lightly restrained in a gauze wrap and pressure was applied to the dorsal surface of the inflamed and uninflamed paw with a conical piston using a pressure analgesia apparatus (Stoelting Instruments, Wood Dale, Ill.). […] Paw pressure thresholds were determined before and at specified times after drug treatment. All test groups contained at least six animals. Protocol. A sample of (±)-beloxepin was prepared by milling the isolated (+)-beloxepin and (−)-beloxepin enantiomers together, bringing them up in solvent, and then removing the solvent (“Lot 9”). In this experiment, 30 mg/kg of (±)-beloxepin (“Lot 7”) or 30 mg/kg of the reconstituted racemic mixture (Lot 9) was administered in rats treated with FCA for 24 hours. Thirty minutes after treatment with vehicle, (±)-beloxepin, or reconstituted racemic mixture, paw pressure thresholds were determined. Thirty minutes is the time of peak mechanical antihyperalgesia of (±)-beloxepin.

male ICR mice = experiment: Acetic acid-induced writhing (visceral pain); format: in vivo, mouse
Procedure: Protocol. […] Five minutes after treatment with acetic acid, the number of writhes was counted for 10 min. A writhe is defined as the extension of both front and hind limbs with a concave stretch of the abdomen. The mean number of writhes was determined for each treatment group and the percent inhibition of the vehicle response was calculated using the following formula: […]

[4] = test system: rat hindpaw incisional model; experiment: Rat hindpaw incisional pain model, tactile allodynia; format: in vivo; conditions: for antiallodynic effect over time: tested 30, 60, 120, 240 minutes
Procedure: Protocol. A time course experiment was performed with beloxepin in the hindpaw incision model. […] Protocol. […] Protocol.

L5 SNL rats [5] = experiment: L5 SNL model of neuropathic pain, tactile allodynia (von Frey); format: in vivo, rat; conditions: for antiallodynic effect over time, oral: 60 mg/kg PO
noradrenaline reuptake = conditions: synaptosomes from rat and primate brain; cited from earlier work
[6] = test system: noradrenergic, histaminergic and cholinergic receptors; conditions: published report; cited from earlier work
5HT2C receptor = target: T2, 5HT2C receptor (Homo sapiens, UniProt P28335); conditions: published report; cited from earlier work
T2 sequence (P28335 33-458): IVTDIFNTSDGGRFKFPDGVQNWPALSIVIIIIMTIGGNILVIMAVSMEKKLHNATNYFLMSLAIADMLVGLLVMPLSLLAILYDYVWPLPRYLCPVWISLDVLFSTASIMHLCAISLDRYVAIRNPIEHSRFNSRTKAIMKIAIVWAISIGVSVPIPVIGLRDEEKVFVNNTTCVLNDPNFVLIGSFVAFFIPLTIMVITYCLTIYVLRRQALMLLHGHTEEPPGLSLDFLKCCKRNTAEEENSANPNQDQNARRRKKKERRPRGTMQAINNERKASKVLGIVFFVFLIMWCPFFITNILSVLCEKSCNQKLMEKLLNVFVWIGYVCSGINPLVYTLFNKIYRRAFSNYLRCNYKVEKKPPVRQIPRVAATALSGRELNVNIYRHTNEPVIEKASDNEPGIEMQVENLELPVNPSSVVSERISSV

[7] = single dose, 10 to 500 mg; cited from earlier work
[8] = cited from earlier work
[9] = test system: patients hospitalized for depression; conditions: phase IIA; cited from earlier work
major depression = conditions: subsequent clinical trials; cited from earlier work
[10] = test system: animal models of depression; conditions: preclinical models of depression; cited from earlier work
human volunteers = conditions: 25-400 mg, cited from earlier work
pain intensity = conditions: study completers, double-blind placebo-controlled; cited from earlier work

T1 sequence (P10635 whole entry): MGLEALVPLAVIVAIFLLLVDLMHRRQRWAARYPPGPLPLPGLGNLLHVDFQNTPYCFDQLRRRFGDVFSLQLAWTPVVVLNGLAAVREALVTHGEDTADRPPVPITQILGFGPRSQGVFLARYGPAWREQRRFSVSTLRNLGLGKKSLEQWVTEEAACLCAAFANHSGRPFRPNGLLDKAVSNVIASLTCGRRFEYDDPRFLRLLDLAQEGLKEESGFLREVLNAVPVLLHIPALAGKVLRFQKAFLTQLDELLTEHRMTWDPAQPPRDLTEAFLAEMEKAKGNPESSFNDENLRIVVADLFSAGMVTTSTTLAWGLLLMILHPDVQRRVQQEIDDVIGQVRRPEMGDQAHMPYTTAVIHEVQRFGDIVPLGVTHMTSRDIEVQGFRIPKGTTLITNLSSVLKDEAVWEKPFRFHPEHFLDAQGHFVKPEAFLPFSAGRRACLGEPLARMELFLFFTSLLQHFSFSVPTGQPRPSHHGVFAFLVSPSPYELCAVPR

SMILES: Cc1cccc2c1Oc1ccccc1C1(O)CCN(C)CC21 (racemic) [beloxepin, cis-1,2,3,4,4a,13b-hexahydro-2,10-dimethyldiben-[2,3:6,7]oxepino[4,5c]pyridine-4a-ol]]
- IC50 (CYP2D6 [1]; human recombinant CYP2D6 microsomes, read-out: CYP2D6 IC50 (initial screening, MAMC substrate)): 0.536 µM
- inhibition at 10 µM (CYP2D6 [1]; human, probe 7-methoxy-4-(aminomethyl)-coumarin (MAMC)): 97%
- IC50 (CYP2D6 [2]): 31.7 µM
- side effects following treatment (L5 SNL rats [3]; 30 mg/kg IP, L5 SNL rats): No side effects were observed
- antiallodynic efficacy compared with duloxetine (L5 SNL rats [3]; each 30 mg/kg IP (FIG. 11)): comparable in efficacy to duloxetine
- peak antiallodynic effect compared with esreboxetine (L5 SNL rats [3]; each 30 mg/kg IP (FIG. 11)): greater than that measured in rats treated with esreboxetine
- anti-nociceptive activity (paw lick latency) (Male Sprague-Dawley rats): nearly as effective as 3 mg/kg morphine; also recorded: almost equivalent to that of 3 mg/kg morphine
- reversal of FCA-induced hyperalgesia (FCA-treated rats; 30 mg/kg (FIG. 7)): nearly completely reversed hyperalgesia; also recorded: nearly complete reversal of hyperalgesia
- mechanical antihyperalgesic efficacy (FCA-treated rats; 30 mg/kg IP, 24 hours after FCA, 30 min after treatment (FIG. 9)): 96±16%
- ED50 (male ICR mice; Mus musculus, oral, 25 min prior to 0.6% acetic acid IP (FIG. 8), read-out: ED50 inhibition of acetic acid-induced writhing): 13.3 mg/kg
- inhibition of acetic acid-induced writhing, dose dependence (male ICR mice; oral (FIG. 8)): dose-dependent fashion
- maximum hindpaw withdrawal threshold ([4]; 3 mg/kg IV, 24 hours post-surgery, 30 minute time point (FIG. 14)): ~21 grams
- antiallodynic effect over time ([4]; 3 mg/kg IV): significant antiallodynic effect at the 30 and 120 minute time points
- maximum threshold, % of the threshold value for vehicle treated rats ([4]; 30 mg/kg IP, 30 minute time point (FIG. 12)): 544%
- maximum hindpaw withdrawal threshold ([4]; 30 mg/kg IP, 24 hours post surgery, 30 minute time point (FIG. 12)): ~29 grams
- antiallodynic effect over time ([4]; 30 mg/kg IP): significant antiallodynic effect at all four time points
- maximum hindpaw withdrawal threshold ([4]; 60 mg/kg PO, 24 hours post-surgery, 30 and 60 minute time points (FIG. 13)): ~24 grams
- antiallodynic effect over time ([4]; 60 mg/kg PO): significant antiallodynic effect at all four time points
- 3 mg/kg IV dose lower than a dose that produced a significant respiratory or cardiovascular side effect ([4]; IV, rats): 10 fold
- tactile antiallodynic effect, % of that observed with sham-operated animals (L5 SNL rats [5]; 30 mg/kg IP (FIG. 2)): ~100%
- observed mean threshold (L5 SNL rats [5]; 30 mg/kg IP (FIG. 3)): approximately 15 g
- maximal antiallodynic effect, % of the threshold of vehicle-treated rats (L5 SNL rats [5]; 30 mg/kg IP, 14 days post surgery, 30 min post treatment (FIG. 1)): 829%
- antiallodynic effect over time (L5 SNL rats [5]; 30 mg/kg IP, 14 days post surgery, tested 30, 60, 120, 240 min): significant antiallodynia effects at the 30, 60 and 120 min time points
- antiallodynic effect, % of the threshold for vehicle-treated rats (L5 SNL rats [5]; 30 mg/kg IP, 16 days post surgery, 30 min post treatment (FIG. 2)): 852%
- antiallodynic effect over time, oral (L5 SNL rats [5]; 7 days post surgery, tested 30, 60, 120, 240 min (FIG. 10)): significant antiallodynic effects at all four time points
- antiallodynic effect over time, oral (L5 SNL rats [5]; 8 days post surgery, tested 30, 60, 120, 240 min (FIG. 4)): significant and robust antiallodynic effects at the 30 and 60 min time points
- antiallodynic effect compared with duloxetine, amitriptyline, reboxetine (L5 SNL rats [5]; each 30 mg/kg IP (FIG. 5)): the most effective of the compounds tested
- affinity for other monoamine carriers (serotonin and dopamine transporters) less than for noradrenaline reuptake (noradrenaline reuptake): greater than 100 fold
- affinity for noradrenergic, histaminergic and cholinergic receptors [6]: no or very weak affinity
- affinity for the 5HT2C receptor (5HT2C receptor): modest affinity
- t1/2 [7]: 11 to 15 h
- tmax [7]: one to four
- t1/2, steady state ([8]; healthy normal subjects, 50 to 800 mg): 12 to 14 h
- adverse effects in healthy volunteers ([8]; up to 800 mg/day): No important adverse effects were observed
- fraction of patients with a moderate to good response (HAMD score reduction) [9]: ⅔
- efficacy for the treatment of major depression (major depression): insufficient efficacy
- sedation, motor impairment, side effects in animal tests [10]: did not cause sedation, motor impairment or other untoward side effects
- total duration of nocturnal REM sleep (human volunteers; EEG): decreased total duration of nocturnal REM sleep
- REM latency (human volunteers; acutely and sub-chronically, EEG): dose-dependently prolonged REM latency
- sedation or other side effects in sleep studies (human volunteers; human volunteers): No sedation or other side effects were observed

SMILES: CNCCCC12CCC(c3ccccc31)c1ccccc12 [maprotiline]
- reduction in pain intensity (pain intensity): 45%

SMILES: Fc1ccc([C@@H]2CCNC[C@H]2COc2ccc3c(c2)OCO3)cc1 [paroxetine]
- reduction in pain intensity (pain intensity): 26%
